Laboratory results published in patent US10206398B2, “Five-membered C-N-attached aryl sulphide and aryl sulphoxide derivatives as pesticides” (BAYER CROPSCIENCE AKTIENGESELLSCHAFT, priority 2014, dated 2019).
Read-outs that look alike come from different tables or passages of the source.

How the values were obtained:
[1] = log P determination by HPLC on reversed-phase columns (C 18), analogous to OECD Guideline 117; assay type: physicochemical; conditions: for logP[a]: method [a]; for logP[b]: method [b]; for chromatographic logP: reversed-phase HPLC column (C 18)
Method in brief: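 Reversed-phase C18 HPLC per OECD 117, two conditions: [a] pH 2.7, 0.1% formic acid water/acetonitrile, log P(HCOOH); [b] pH 7.8, 0.001 M ammonium hydrogencarbonate/acetonitrile, log P(neutral). Both use a 10–95% acetonitrile gradient; values are interpolated from retention times against C3–C16 unbranched alkan-2-ones.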

[2] = test system: Boophilus microplus; assay: Boophilus microplus - injection test; assay type: in vivo; conditions: 20 μg/animal, injection into engorged adult female cattle ticks, assessed after 7 days
Method: 1. Boophilus microplus—Injection Test
Solvent: dimethyl sulphoxide
To produce a suitable preparation of active compound, 10 mg of active compound are mixed with 0.5 ml of solvent and the concentrate is diluted with solvent to the desired concentration.
1 μl of the active compound solution is injected into the abdomen of 5 engorged adult female cattle ticks (Boophilus microplus). The animals are transferred into dishes and kept in a climate-controlled room.
Efficacy is assessed after 7 days by laying of fertile eggs. Eggs which are not visibly fertile are stored in a climate-controlled cabinet until the larvae hatch after about 42 days. An efficacy of 100% means that none of the ticks has laid any fertile eggs; 0% means that all the eggs are fertile.

[3] = test system: Tetranychus urticae; assay: Tetranychus urticae - spray test, OP-resistant (bean leaf discs, 6 days); assay type: in vivo; conditions: 500 g/ha, after 6 days; for pest or weed control at 500 g/ha: Tetranychus urticae, foliar, 144 h, read-out: efficacy (spider mites killed)
Method in brief: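 Bean leaf discs carrying all stages of OP-resistant Tetranychus urticae were sprayed with compound formulated in acetone/DMF and diluted in water with 1000 ppm emulsifier. Mortality was scored after 6 days as % efficacy, where 100% means all mites were killed.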

[4] = test system: Meloidogyne incognita; assay: Meloidogyne incognita - test; assay type: in vivo; conditions: 20 ppm, lettuce, after 14 days
Method: 2. Meloidogyne incognita—Test Solvent: 125.0 parts by weight of acetone To produce a suitable preparation of active compound, 1 part by weight of active compound is mixed with the stated amount of solvent and the concentrate is diluted with water to the desired concentration. Vessels are filled with sand, active compound solution, an egg/larvae suspension of the southern root-knot nematode (Meloidogyne incognita) and lettuce seeds. The lettuce seeds germinate and the plants develop. The galls develop on the roots. After 14 days, the nematicidal efficacy in % is determined by the formation of galls. 100% means that no galls were found; 0% means that the number of galls on the treated plants corresponds to the untreated control.

[5] = pH 2.7, HPLC, acidic range, pH 2.7, 0.1% aqueous formic acid and acetonitrile, read-out: log P(HCOOH)
[6] = pH 2.7, method [a], read-out: logP[a]
[7] = pH 7.8, HPLC, neutral range, pH 7.8, 0.001 molar aqueous ammonium hydrogencarbonate and acetonitrile, read-out: log P(neutral)
[8] = pH 7.8, method [b], read-out: logP[b]

Compound: Cc1cc(Cl)c(N2C(=O)CN(C(=O)NC3CC3)C2=O)cc1[S+]([O-])CC(F)(F)F (stereo not shown) [compound 62]
- logP[a] [1]: 2.38
- logP[b] [1]: 2.29
- efficacy (laying of fertile eggs) [2]: 100%
- efficacy (spider mites killed) [3]: 100%

Compound: Cc1cc(F)c(N2C(=O)C(C)N(C(=O)NCC(C)C)C2=O)cc1[S+]([O-])CC(F)(F)F (mixture of isomers) [compound 89]
- logP[a] [1]: 3.10
- logP[b] [1]: 3.02
- efficacy (laying of fertile eggs) [2]: 100%
- efficacy (spider mites killed) [3]: 100%

Compound: Cc1cc(F)c(N2C(=O)CN(C(=O)N3CCOCC3)C2=O)cc1SCC(F)(F)F [Ex. No. 122, 3-[2-Fluoro-4-methyl-5-(2,2,2-trifluoroethylsulphanyl)phenyl]-1-(morpholine-4-carbonyl)imidazolidine-2,4-dione]
- nematicidal efficacy (formation of galls) [4]: 90%
- chromatographic logP [1, 5]: 2.61
- chromatographic logP [1, 6]: 2.58
- chromatographic logP [1, 7]: 2.58
- chromatographic logP [1, 8]: 2.62
- pest or weed control at 500 g/ha [3]: 100%

Compound: Cc1cc(F)c(N2C(=O)CN(C(=O)N3CCOCC3)C2=O)cc1[S+]([O-])CC(F)(F)F (stereo not shown) [Ex. No. 125, 3-[2-Fluoro-4-methyl-5-(2,2,2-trifluoroethylsulphinyl)phenyl]-1-(morpholine-4-carbonyl)imidazolidine-2,4-dione]
- nematicidal efficacy (formation of galls) [4]: 100%
- chromatographic logP [1, 5]: 1.79
- chromatographic logP [1, 6]: 1.75
- chromatographic logP [1, 7]: 1.75
- chromatographic logP [1, 8]: 1.79
- pest or weed control at 500 g/ha [3]: 100%

Compound: Cc1cc(F)c(N2C(=O)CN(C(=O)Nc3cccnc3)C2=O)cc1[S+]([O-])CC(F)(F)F (stereo not shown) [compound 20]
- nematicidal efficacy (formation of galls) [4]: 100%
- logP[a] [1]: 1.51
- logP[b] [1]: 1.98
- efficacy (spider mites killed) [3]: 100%

Compound: Cc1cc(F)c(N2C(=O)CN(C(=O)NCC3CCCO3)C2=O)cc1[S+]([O-])CC(F)(F)F (mixture of isomers) [compound 91]
- logP[a] [1]: 2.19
- logP[b] [1]: 2.13
- efficacy (laying of fertile eggs) [2]: 100%
- efficacy (spider mites killed) [3]: 100%

Compound: O=C(Nc1ccc(F)cc1)N1CC(=O)N(c2cc(SCC(F)(F)F)c(Cl)cc2Cl)C1=O [compound 108]
- nematicidal efficacy (formation of galls) [4]: 90%
- logP[a] [1]: 4.09
- logP[b] [1]: 4.20
- efficacy (spider mites killed) [3]: 100%

Compound: CCNC(=O)N1C(=O)N(c2cc([S+]([O-])CC(F)(F)F)c(C)cc2F)C(=O)C1C (stereo not shown) [Ex. No. 27, N-Ethyl-3-[2-fluoro-4-methyl-5-(2,2,2-trifluoroethylsulphinyl)phenyl]-5-methyl-2,4-dioxoimidazolidine-1-carboxamide]
- chromatographic logP [1, 5]: 2.42
- chromatographic logP [1, 6]: 2.42
- chromatographic logP [1, 7]: 2.39
- chromatographic logP [1, 8]: 2.39
- efficacy (laying of fertile eggs) [2]: 100%
- pest or weed control at 500 g/ha [3]: 100%

Compound: CCNC(=O)N1CC(=O)N(c2cc(SCC(F)(F)F)c(Cl)cc2Cl)C1=O [compound 103]
- nematicidal efficacy (formation of galls) [4]: 90%
- logP[a] [1]: 3.25
- logP[b] [1]: 3.26
- efficacy (spider mites killed) [3]: 90%

Compound: Cc1cc(F)c(N2C(=O)CN(C(=O)Nc3ccc(F)cc3)C2=O)cc1[S+]([O-])CC(F)(F)F (stereo not shown) [compound 41]
- logP[a] [1]: 2.92
- logP[b] [1]: 2.86
- efficacy (laying of fertile eggs) [2]: 100%
- efficacy (spider mites killed) [3]: 100%

Compound: Cc1cc(F)c(N2C(=O)CN(C(=O)N(C)C3CC3)C2=O)cc1SCC(F)(F)F [compound 121]
- nematicidal efficacy (formation of galls) [4]: 90%
- logP[a] [1]: 2.99
- logP[b] [1]: 3.03
- efficacy (spider mites killed) [3]: 100%

Compound: Cc1cc(F)c(N2C(=O)CN(C(=O)N3CCC(F)(F)CC3)C2=O)cc1SCC(F)(F)F [compound 129]
- nematicidal efficacy (formation of galls) [4]: 100%
- logP[a] [1]: 3.27
- logP[b] [1]: 3.29
- efficacy (spider mites killed) [3]: 100%

Compound: Cc1cc(Cl)c(N2C(=O)CN(C(=O)NCC(F)(F)F)C2=O)cc1[S+]([O-])CC(F)(F)F (stereo not shown) [compound 63]
- logP[a] [1]: 2.66
- logP[b] [1]: 2.58
- efficacy (laying of fertile eggs) [2]: 100%
- efficacy (spider mites killed) [3]: 100%

Compound: Cc1cc(F)c(N2C(=O)CN(C(=O)Nc3ccccn3)C2=O)cc1SCC(F)(F)F [compound 78]
- nematicidal efficacy (formation of galls) [4]: 100%
- logP[a] [1]: 3.37
- logP[b] [1]: 3.29
- efficacy (spider mites killed) [3]: 100%

Compound: Cc1cc(F)c(N2C(=O)C(C)N(C(=O)NC(C)C)C2=O)cc1[S+]([O-])CC(F)(F)F (stereo not shown) [compound 29]
- logP[a] [1]: 2.77
- logP[b] [1]: 2.73
- efficacy (laying of fertile eggs) [2]: 100%
- efficacy (spider mites killed) [3]: 100%

Compound: Cc1cc(F)c(N2C(=O)CN(C(=O)N3CCC(F)(F)CC3)C2=O)cc1[S+]([O-])CC(F)(F)F (stereo not shown) [compound 132]
- nematicidal efficacy (formation of galls) [4]: 100%
- logP[a] [1]: 2.41
- logP[b] [1]: 2.46
- efficacy (spider mites killed) [3]: 90%

Compound: Cc1cc(F)c(N2C(=O)CN(C(=O)NCC(C)C)C2=O)cc1[S+]([O-])CC(F)(F)F (stereo not shown) [Ex. No. 15, 3-[2-Fluoro-4-methyl-5-(2,2,2-trifluoroethylsulphinyl)phenyl]-N-isobutyl-2,4-dioxoimidazolidine-1-carboxamide]
- chromatographic logP [1, 5]: 2.72
- chromatographic logP [1, 6]: 2.72
- chromatographic logP [1, 7]: 2.66
- chromatographic logP [1, 8]: 2.66
- efficacy (laying of fertile eggs) [2]: 100%
- pest or weed control at 500 g/ha [3]: 100%

Compound: Cc1cc(F)c(N2C(=O)CN(C(=O)N(C)CC(C)C)C2=O)cc1[S+]([O-])CC(F)(F)F (stereo not shown) [compound 126]
- nematicidal efficacy (formation of galls) [4]: 100%
- logP[a] [1]: 2.6
- logP[b] [1]: 2.66
- efficacy (spider mites killed) [3]: 100%

Compound: Cc1cc(F)c(N2C(=O)C(C)N(C(=O)NC3CC3)C2=O)cc1[S+]([O-])CC(F)(F)F (stereo not shown) [compound 28]
- logP[a] [1]: 2.46
- logP[b] [1]: 2.42
- efficacy (laying of fertile eggs) [2]: 100%
- efficacy (spider mites killed) [3]: 100%

Compound: Cc1cc(F)c(N2C(=O)C(C)N(C(=O)NCC(F)(F)F)C2=O)cc1[S+]([O-])CC(F)(F)F (mixture of isomers) [compound 88]
- logP[a] [1]: 2.75
- logP[b] [1]: 2.71
- efficacy (laying of fertile eggs) [2]: 100%
- efficacy (spider mites killed) [3]: 100%
